According to ChEMBL document CHEMBL5696441 (Nat Chem Biol, 2011):

Experiments:
[1] = system: Tyrosine-protein kinase ABL1 (Homo sapiens), P00519 [F317L]; test: Inhibition of ABL1 F317L mutant (unknown origin) assessed as remaining activity at 1 uM by Kinome scan method relative to control
[2] = target: T1, Calcium/calmodulin-dependent protein kinase type IV (Homo sapiens) (UniProt Q16566); test: Inhibition of CAMK4 (unknown origin) assessed as remaining activity at 1 uM by Kinome scan method relative to control
T1 sequence (whole entry): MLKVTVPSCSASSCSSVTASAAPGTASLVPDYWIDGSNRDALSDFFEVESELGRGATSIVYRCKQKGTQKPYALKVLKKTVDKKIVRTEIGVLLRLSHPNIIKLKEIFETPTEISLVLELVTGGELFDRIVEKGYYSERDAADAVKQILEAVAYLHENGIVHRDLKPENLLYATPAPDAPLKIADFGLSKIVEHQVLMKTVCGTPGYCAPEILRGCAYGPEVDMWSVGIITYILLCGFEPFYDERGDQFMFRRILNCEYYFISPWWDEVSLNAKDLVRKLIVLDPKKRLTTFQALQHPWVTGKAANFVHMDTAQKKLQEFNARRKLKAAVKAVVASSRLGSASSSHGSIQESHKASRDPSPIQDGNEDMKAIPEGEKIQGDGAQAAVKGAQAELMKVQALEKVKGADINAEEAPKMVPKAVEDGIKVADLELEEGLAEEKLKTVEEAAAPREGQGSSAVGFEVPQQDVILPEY

[3] = target: Dual specificity tyrosine-phosphorylation-regulated kinase 1A (Homo sapiens) (UniProt Q13627); test: Inhibition of DYRK1A (unknown origin) assessed as remaining activity at 1 uM by Kinome scan method relative to control
[4] = target: T2, Ephrin type-B receptor 4 (Homo sapiens) (UniProt P54760); test: Inhibition of EPHB4 (unknown origin) assessed as remaining activity at 1 uM by Kinome scan method relative to control
T2 sequence (whole entry): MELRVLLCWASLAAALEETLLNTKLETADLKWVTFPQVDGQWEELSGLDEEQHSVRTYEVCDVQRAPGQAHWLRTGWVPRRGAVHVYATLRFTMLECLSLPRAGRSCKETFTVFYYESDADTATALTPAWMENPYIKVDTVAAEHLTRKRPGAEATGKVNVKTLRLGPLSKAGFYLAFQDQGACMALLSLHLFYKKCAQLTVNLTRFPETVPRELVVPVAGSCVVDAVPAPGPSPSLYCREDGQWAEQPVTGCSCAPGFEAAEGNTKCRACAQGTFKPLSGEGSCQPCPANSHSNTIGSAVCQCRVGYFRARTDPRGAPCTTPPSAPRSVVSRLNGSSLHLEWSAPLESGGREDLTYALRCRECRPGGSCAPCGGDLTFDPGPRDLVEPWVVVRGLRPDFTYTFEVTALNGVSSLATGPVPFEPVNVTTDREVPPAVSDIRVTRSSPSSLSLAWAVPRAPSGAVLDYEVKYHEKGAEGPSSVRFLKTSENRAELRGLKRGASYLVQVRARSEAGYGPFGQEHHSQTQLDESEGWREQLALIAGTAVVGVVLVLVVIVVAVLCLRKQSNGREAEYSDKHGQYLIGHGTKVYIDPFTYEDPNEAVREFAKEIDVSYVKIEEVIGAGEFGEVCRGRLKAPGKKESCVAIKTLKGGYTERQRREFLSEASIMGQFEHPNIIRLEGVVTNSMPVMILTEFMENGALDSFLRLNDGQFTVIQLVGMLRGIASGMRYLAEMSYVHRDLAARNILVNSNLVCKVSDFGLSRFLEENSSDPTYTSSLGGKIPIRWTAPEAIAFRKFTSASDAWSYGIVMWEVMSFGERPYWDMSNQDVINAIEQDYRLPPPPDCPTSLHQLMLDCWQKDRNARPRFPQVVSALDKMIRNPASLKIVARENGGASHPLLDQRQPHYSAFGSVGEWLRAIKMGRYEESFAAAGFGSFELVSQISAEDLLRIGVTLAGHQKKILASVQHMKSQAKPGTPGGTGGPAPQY

[5] = target: Hormonally up-regulated neu tumor-associated kinase (Homo sapiens) (UniProt P57058); test: Inhibition of HUNK (unknown origin) assessed as remaining activity at 1 uM by Kinome scan method relative to control
[6] = target: Mitogen-activated protein kinase kinase kinase kinase 3 (Homo sapiens) (UniProt Q8IVH8); test: Inhibition of MAP4K3 (unknown origin) assessed as remaining activity at 1 uM by Kinome scan method relative to control
[7] = target: Myosin light chain kinase 2, skeletal/cardiac muscle (Homo sapiens) (UniProt Q9H1R3); test: Inhibition of MYLK2 (unknown origin) assessed as remaining activity at 1 uM by Kinome scan method relative to control
[8] = target: Serine/threonine-protein kinase RIO2 (Homo sapiens) (UniProt Q9BVS4); test: Inhibition of RIOK2 (unknown origin) assessed as remaining activity at 1 uM by Kinome scan method relative to control
[9] = target: T3, Serine/threonine-protein kinase TAO3 (Homo sapiens) (UniProt Q9H2K8); test: Inhibition of TAOK3 (unknown origin) assessed as remaining activity at 1 uM by Kinome scan method relative to control
T3 sequence (whole entry): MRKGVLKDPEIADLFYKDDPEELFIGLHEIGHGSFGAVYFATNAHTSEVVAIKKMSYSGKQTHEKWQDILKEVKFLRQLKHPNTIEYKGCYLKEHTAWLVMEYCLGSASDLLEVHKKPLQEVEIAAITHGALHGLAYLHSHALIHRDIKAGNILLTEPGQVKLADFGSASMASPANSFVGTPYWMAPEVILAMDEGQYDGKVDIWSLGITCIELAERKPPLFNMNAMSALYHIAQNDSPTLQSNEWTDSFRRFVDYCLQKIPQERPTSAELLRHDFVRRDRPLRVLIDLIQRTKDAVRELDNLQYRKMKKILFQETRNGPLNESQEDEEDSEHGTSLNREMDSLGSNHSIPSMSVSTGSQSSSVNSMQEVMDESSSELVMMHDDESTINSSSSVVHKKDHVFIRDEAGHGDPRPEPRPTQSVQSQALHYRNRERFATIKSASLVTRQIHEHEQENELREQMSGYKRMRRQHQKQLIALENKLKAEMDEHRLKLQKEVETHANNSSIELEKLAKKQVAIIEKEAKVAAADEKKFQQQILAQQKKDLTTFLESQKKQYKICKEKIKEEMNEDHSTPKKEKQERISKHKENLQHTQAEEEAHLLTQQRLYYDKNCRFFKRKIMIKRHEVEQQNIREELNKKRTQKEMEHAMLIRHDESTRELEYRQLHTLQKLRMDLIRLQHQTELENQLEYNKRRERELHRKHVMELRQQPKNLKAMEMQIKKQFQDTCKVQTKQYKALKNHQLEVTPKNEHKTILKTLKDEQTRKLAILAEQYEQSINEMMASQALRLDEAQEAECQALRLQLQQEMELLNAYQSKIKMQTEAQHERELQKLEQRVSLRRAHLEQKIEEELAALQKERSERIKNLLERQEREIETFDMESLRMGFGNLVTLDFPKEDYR

Sequence of Myosin light chain kinase 2, skeletal/cardiac muscle (Homo sapiens) (Q9H1R3 whole entry): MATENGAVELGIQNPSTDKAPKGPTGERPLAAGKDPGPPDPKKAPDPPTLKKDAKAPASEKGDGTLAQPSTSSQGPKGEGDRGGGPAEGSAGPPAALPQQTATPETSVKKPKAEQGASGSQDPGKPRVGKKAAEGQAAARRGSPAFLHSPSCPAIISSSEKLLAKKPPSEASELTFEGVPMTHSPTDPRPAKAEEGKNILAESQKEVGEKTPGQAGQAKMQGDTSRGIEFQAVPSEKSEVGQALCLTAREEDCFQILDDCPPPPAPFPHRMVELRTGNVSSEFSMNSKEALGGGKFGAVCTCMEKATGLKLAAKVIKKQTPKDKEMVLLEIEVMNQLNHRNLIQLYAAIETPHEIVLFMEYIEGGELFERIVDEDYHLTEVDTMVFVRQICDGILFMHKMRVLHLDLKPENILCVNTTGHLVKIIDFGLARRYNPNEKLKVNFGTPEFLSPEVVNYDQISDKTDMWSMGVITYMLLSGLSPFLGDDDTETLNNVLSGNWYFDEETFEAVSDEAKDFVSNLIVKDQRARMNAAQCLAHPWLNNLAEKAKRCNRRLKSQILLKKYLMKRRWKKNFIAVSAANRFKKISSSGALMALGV
Sequence of Hormonally up-regulated neu tumor-associated kinase (Homo sapiens) (P57058 whole entry): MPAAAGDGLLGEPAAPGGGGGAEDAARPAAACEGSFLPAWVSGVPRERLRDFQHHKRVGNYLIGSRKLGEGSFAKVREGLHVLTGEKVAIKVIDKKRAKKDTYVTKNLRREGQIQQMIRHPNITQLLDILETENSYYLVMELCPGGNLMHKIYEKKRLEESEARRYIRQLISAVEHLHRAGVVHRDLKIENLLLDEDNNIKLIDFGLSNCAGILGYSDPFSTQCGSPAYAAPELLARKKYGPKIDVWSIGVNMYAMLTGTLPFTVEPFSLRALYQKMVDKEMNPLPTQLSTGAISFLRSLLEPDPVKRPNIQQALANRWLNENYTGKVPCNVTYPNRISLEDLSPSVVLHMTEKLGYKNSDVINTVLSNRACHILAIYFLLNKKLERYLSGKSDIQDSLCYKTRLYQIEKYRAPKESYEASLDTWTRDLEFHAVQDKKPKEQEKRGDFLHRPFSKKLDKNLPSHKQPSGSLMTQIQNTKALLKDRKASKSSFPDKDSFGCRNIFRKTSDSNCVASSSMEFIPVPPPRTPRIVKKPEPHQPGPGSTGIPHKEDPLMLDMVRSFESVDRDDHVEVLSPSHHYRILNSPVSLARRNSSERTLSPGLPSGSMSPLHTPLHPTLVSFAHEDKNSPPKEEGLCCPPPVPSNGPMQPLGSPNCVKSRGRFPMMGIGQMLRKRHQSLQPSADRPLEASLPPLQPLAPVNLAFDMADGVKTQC
Sequence of Tyrosine-protein kinase ABL1 (Homo sapiens), P00519 [F317L] (P00519 whole entry F317L): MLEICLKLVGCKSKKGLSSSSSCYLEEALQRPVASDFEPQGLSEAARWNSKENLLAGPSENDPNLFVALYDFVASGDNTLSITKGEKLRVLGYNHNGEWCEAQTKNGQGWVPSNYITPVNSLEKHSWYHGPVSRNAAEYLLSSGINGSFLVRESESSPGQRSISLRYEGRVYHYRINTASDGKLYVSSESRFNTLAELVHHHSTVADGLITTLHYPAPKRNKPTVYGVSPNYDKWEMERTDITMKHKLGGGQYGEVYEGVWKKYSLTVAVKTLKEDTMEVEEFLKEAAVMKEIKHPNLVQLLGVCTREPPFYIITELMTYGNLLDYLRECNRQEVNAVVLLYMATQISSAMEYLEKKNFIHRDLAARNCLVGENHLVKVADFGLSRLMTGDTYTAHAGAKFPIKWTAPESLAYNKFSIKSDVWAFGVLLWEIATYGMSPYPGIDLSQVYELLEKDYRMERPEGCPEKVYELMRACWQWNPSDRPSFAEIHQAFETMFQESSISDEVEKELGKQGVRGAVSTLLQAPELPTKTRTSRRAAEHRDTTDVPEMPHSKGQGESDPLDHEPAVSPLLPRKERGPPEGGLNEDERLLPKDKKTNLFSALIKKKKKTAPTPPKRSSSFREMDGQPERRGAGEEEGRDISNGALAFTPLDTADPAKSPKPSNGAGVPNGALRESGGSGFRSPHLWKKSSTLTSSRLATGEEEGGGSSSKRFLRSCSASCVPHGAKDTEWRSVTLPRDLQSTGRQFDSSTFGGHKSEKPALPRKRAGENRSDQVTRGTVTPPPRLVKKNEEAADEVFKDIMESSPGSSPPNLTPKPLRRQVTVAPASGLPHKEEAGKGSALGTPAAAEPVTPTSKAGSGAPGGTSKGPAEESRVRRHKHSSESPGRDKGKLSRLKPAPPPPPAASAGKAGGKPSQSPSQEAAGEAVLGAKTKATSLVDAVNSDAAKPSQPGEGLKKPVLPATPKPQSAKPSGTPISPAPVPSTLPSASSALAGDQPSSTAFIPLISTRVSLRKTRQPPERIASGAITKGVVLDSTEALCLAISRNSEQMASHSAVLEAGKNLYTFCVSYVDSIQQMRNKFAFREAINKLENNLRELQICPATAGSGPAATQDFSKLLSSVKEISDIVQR
Sequence of Serine/threonine-protein kinase RIO2 (Homo sapiens) (Q9BVS4 whole entry, looked up): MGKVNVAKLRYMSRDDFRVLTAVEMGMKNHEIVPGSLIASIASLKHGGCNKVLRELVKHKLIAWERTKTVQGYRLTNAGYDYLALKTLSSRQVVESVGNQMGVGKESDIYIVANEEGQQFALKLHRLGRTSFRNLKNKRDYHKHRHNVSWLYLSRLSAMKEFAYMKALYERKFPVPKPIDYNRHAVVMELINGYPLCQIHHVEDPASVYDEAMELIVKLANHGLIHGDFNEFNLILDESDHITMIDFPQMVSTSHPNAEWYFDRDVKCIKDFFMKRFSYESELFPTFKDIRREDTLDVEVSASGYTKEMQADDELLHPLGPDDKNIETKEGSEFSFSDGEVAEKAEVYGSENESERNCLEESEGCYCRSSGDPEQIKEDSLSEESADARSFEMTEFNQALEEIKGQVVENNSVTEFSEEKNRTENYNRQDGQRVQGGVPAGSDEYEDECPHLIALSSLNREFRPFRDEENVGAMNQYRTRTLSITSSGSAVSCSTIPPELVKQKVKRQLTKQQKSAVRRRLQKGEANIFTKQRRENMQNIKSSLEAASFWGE
Sequence of Mitogen-activated protein kinase kinase kinase kinase 3 (Homo sapiens) (Q8IVH8 whole entry): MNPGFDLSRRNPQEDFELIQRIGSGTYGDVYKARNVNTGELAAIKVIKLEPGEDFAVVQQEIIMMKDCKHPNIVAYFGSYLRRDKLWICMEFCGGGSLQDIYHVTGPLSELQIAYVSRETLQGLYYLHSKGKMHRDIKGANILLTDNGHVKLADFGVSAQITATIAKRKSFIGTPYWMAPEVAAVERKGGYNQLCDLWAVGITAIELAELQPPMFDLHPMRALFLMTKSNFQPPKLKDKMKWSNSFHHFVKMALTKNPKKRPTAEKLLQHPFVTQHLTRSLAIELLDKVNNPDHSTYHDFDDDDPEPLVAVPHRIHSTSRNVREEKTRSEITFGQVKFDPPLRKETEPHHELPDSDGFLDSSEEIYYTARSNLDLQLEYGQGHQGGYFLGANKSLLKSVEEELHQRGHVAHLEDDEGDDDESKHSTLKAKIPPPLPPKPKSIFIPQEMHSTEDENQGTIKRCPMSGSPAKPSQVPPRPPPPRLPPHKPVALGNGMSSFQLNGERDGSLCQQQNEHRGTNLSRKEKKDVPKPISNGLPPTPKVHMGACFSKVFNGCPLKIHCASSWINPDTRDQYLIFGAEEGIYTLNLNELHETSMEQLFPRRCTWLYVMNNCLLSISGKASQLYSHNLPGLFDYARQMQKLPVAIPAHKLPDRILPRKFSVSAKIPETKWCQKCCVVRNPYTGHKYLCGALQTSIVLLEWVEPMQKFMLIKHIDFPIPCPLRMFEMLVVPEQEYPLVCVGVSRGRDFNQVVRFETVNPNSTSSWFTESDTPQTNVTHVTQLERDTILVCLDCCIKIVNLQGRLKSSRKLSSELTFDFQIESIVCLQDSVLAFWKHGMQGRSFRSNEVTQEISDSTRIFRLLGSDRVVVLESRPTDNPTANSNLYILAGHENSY

Structure (SMILES)	Activity [1]	Activity [2]	Activity [3]	Activity [4]	Activity [5]	Activity [6]	Activity [7]	Activity [8]	Activity [9]
Nc1ccccc1Nc1ccc2c(c1)CCc1ccccc1C2=O	87%	90%	92%	97%	91%	75%	87%	85%	99%
O=C1c2ccc(Nc3ccc(F)cc3F)cc2CCc2ccc(OC[C@H](O)CO)cc21 [Skepinone-L]	100%	90%	98%	100%	96%	88%	90%	81%	100%
